Laboratory results published in patent US20040224981A1, “Antibacterial methods and compositions” (priority 2003, published 2004).
Like-named read-outs stand apart in the source and are kept apart here.

Experiments:
[1] = test system: E. faecium; test: MIC against E. faecium; assay type: cell-based
Procedure: MRSi compound 5 alone and in combination with mupirocin was tested recent clinical isolates of E. faecalis (n=28) and E. faecium (n=23). Both the acetate salt and mupirocinate salts of MRSi compound 5 maintained potent activity against vancomycin-susceptible and—resistant enterococci (Tables 8, 9, and 10).

[2] = test system: S. epidermidis; test: MIC against S. epidermidis; assay type: cell-based
Procedure: (§1) The MRS inhibitor 4 alone and in combination with mupirocin (mupirocin salt and 1:1 combination) were tested against a collection of Gram-positive pathogens.
(§2) The MRS inhibitor 8 was also prepared as a fusidate and mupirocinate salt and tested for antibacterial activity against Gram-positive bacteria (Table 3). […] MRSi compound 8 alone and the fusidate and mupirocin salts were active against mupirocin-resistant S. aureus and S. epidermidis and organisms such as E. faecalis that are not susceptible to mupirocin.
(§3) The MRS inhibitor 5 acetate and mupirocin salts were tested against a collection of Gram-positive bacteria.

[3] = test system: S. hemolyticus; test: MIC against S. hemolyticus; assay type: cell-based
Procedure: as §1, §2, §3

[4] = test system: S. aureus; test: MIC against S. aureus strains and clinical isolates (broth microdilution); assay type: cell-based, Staphylococcus aureus; conditions: Staphylococcus aureus, read-out: MIC
Summary of the method: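 Broth microdilution per NCCLS in cation-supplemented Mueller-Hinton broth, final inoculum 5×10^5 CFU/ml from 0.5 McFarland suspensions diluted 1:10. Trays incubated aerobically overnight with quality control strains each run. Checkerboard FIC index: ≦0.5 synergy, >0.5 to 4 additive/indifferent, >4.0 antagonism.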

[5] = recent clinical isolates of E. faecium, ALL (23)

With `C/C(=C\C(=O)OCCCCCCCCC(=O)O)C[C@@H]1OC[C@H](C[C@@H]2O[C@H]2[C@@H](C)[C@H](C)O)[C@@H](O)[C@H]1O` [Mupirocin, Pseudomonic acid A] the MIC50 ([1]; E. faecium, Van-R(12)) was 1 µg/mL, the MIC90 ([1]; E. faecium, Van-R(12)) was greater than 8 µg/mL and the Mode (MIC) ([1]; E. faecium, Van-R(12)) was 1 µg/mL. For the same molecule, the MIC50 ([1]; E. faecium, Van-S (11)) was 1 µg/mL, the MIC90 ([1]; E. faecium, Van-S (11)) was 1 µg/mL and the Mode (MIC) ([1]; E. faecium, Van-S (11)) was 1 µg/mL. For the same molecule, the “Range (MIC)” value ([1]; E. faecium, Van-S (11), in µg/mL) was 0.25-1, the MIC ([1]; Enterococcus faecium, ATCC33667, Table 8, E. faecium ATCC 33667, read-out: MIC) was 1 µg/mL and the MIC50 [1, 5] was 1 µg/mL. The MIC90 [1, 5] was greater than 8 µg/mL, the Mode (MIC) [1, 5] was 1 µg/mL and the MIC ([2]; Staphylococcus epidermidis, Table 2, S. epidermidis NRS6, read-out: MIC) was greater than 8 µg/mL. The MIC ([2]; Staphylococcus epidermidis, Table 2, S. epidermidis NRS7, read-out: MIC) was 8 µg/mL, the MIC ([2]; Staphylococcus epidermidis, Table 2, S. epidermidis NRS8, read-out: MIC) was greater than 8 µg/mL and the MIC ([2]; Table 3, S. epidermidis NRS6) was greater than 8 µg/mL. For the same molecule, the MIC ([2]; Table 3, S. epidermidis NRS7) was 8 µg/mL, the MIC ([2]; Table 3, S. epidermidis NRS8) was greater than 8 µg/mL and the MIC ([2]; Table 4, S. epidermidis NRS6) was greater than 8 µg/mL. It also gave an MIC ([2]; Table 4, S. epidermidis NRS7) of 8 µg/mL, an MIC ([2]; Table 4, S. epidermidis NRS8) greater than 8 µg/mL and an MIC ([3]; Table 2, S. hemolyticus NRS50, read-out: MIC) of 0.12 µg/mL. The MIC ([3]; Table 2, S. hemolyticus NRS116, read-out: MIC) was 0.25 µg/mL, the MIC ([3]; Table 3, S. hemolyticus NRS50) was 0.12 µg/mL and the MIC ([3]; Table 3, S. hemolyticus NRS116) was 0.25 µg/mL. It also gave an MIC ([3]; Table 4, S. hemolyticus NRS50) of 0.12 µg/mL, an MIC ([3]; Table 4, S. hemolyticus NRS116) of 0.25 µg/mL and an MIC ([4]; ATCC29213, Table 2, S. aureus ATCC 29213) of 0.12 µg/mL. The MIC ([4]; ATCC29213, Table 3, S. aureus ATCC 29213) was 0.12 µg/mL, the MIC ([4]; ATCC29213, Table 4, S. aureus ATCC 29213) was 0.12 µg/mL and the MIC ([4]; ATCC43300, S. aureus ATCC 43300 (ORSA)) was 0.12 µg/mL. The MIC ([4]; ATCC43300, Table 2, S. aureus ATCC 43300 (ORSA)) was 0.25 µg/mL, the MIC ([4]; ATCC43300, Table 3, S. aureus ATCC 43300 (ORSA)) was 0.25 µg/mL and the MIC ([4]; NRS 1 / VISA, S. aureus NRS1 (VISA)) was 0.12 µg/mL. For the same molecule, the MIC ([4]; NRS 1 / VISA, VISA, S. aureus NRS1 (Mu50)) was 0.06 µg/mL, the MIC ([4]; NRS 3 / VISA, VISA, S. aureus NRS3 (HIP5827)) was 0.5 µg/mL and the MIC ([4]; NRS 4 / VISA, VISA, S. aureus NRS4 (HIP5836)) was 0.12 µg/mL. For the same molecule, the MIC ([4]; NRS 18 / VISA, VISA, S. aureus NRS18 (HIP06854)) was 8 µg/mL, the MIC ([4]; NRS 24 / VISA, VISA, S. aureus NRS24 (HIP09143)) was 8 µg/mL and the MIC ([4]; NRS 49 / VISA, VISA, S. aureus NRS49 (Korea)) was 0.03 µg/mL. The MIC ([4]; NRS54, Table 6, high-level mupirocin-resistant S. aureus NRS54) was greater than 256 µg/mL, the MIC ([4]; NRS 54 / VISA, VISA, S. aureus NRS54 (Brazil)) was greater than 8 µg/mL and the MIC ([4]; NRS 56 / VISA, VISA, S. aureus NRS56 (Brazil)) was 0.12 µg/mL. For the same molecule, the MIC ([4]; NRS107, S. aureus NRS107 (HL Mup rest.)) was greater than 64 µg/mL, the MIC ([4]; NRS107, Table 2, S. aureus NRS107 (mupA)) was greater than 8 µg/mL and the MIC ([4]; NRS107, Table 3, S. aureus NRS107 (mupA)) was greater than 8 µg/mL. The MIC ([4]; NRS107, Table 4, S. aureus NRS107 (mupA)) was greater than 8 µg/mL, the MIC ([4]; NRS107, Table 6, high-level mupirocin-resistant S. aureus NRS107) was greater than 256 µg/mL and the MIC ([4]; NRS127, Table 6, low-level mupirocin-resistant S. aureus NRS127) was 32 µg/mL. It also gave an MIC ([4]; S. aureus 10-420 (LL Mup. Rest.)) greater than 64 µg/mL, an MIC ([4]; S. aureus 14-354 (LL Mup. Rest.)) of 64 µg/mL and an MIC ([4]; S. aureus 25-670 (HL Mup. Rest.)) greater than 64 µg/mL. It also gave an MIC ([4]; S. aureus 31-1334 (LL Mup Rest.)) of 32 µg/mL and an MIC ([4]; S. aureus 36-1298 (LL Mup. Rest.)) of 32 µg/mL.
